# Measurements from patent US8691796B2, “Pharmaceutical composition and method for inhibiting inflammation” (China Medical University, priority 2010, dated 2014).
# How the values were obtained:
# Format in all cases: cell-based, human
# IL-8 = IL-8 concentration in supernatant of treated FLS (sandwich ELISA); conditions: FLS from patients with rheumatoid arthritis, treated 24 hours, mixture = 100 μg hyaluronic acid + 5 micro-mole lovastatin in 1 ml, control group 736.00
# Method: The non-adherent cells were washed out with a phosphate buffer solution (PBS), the medium was refreshed, and the retained adherent cells were cultivated for two weeks. The above procedure was repeated three to six times, and the retained cells were FLS, which were used in the following experiments.
# The FLS prepared from Experiment A were incubated in a medium containing no serum for 24 hours until the cells grew to a subconfluence state, and the cells were incubated in a DMEM medium containing 10% fetal bovine serum. […]
# TNF-α = TNF-α concentration in supernatant of treated FLS (sandwich ELISA); conditions: FLS from patients with rheumatoid arthritis, treated 24 hours, mixture = 100 μg hyaluronic acid + 5 micro-mole lovastatin in 1 ml, control group 347.00
# Method: (§1) Fibroblast-like synoviocytes (FLS) from seven patients with rheumatoid arthritis (RA) were collected and incubated. First, the joint synovia from the patients were cut into small pieces and suspended in a DMEM medium (Dulbecco modified eagle's medium, comprising 1.5 g/L sodium bicarbonate (S6297, Sigma-Aldrich Co. St Louis, Mo., USA), 1% penicillin-streptomycin-neomycin (P4083, Sigma-Aldrich Co.), and 10% fetal bovine serum (04-001-1A, Biological Industries, Grand Island, N.Y., USA)), and were incubated in the environment under 37° C., 5% CO2 for three days.
# (§2) The non-adherent cells were washed out with a phosphate buffer solution (PBS), the medium was refreshed, and the retained adherent cells were cultivated for two weeks. […]
# (§3) The concentrations of two RA-related factors, TNF-α (the standard sample was purchased from eBioscience, Ltd., 88-7340) and IL-8 (the standard sample was purchased from R&D systems, Inc., USA, DY208), in the supernatants collected from Experiment B were measured using a sandwich binding protein assay kit or sandwich ELISA kits (purchased from eBioscience, Ltd. and R&D systems, Inc.) according to the manufacturer's manual and standard curves to observe the expression level of the factors, thereby determining the inflammation condition of the cells. Each sample was analyzed twice, and an ELISA reader (Sunrise Remote, TECAN) was used to conduct the measurement. […]
# [1] = tested on: Fibroblast-like synoviocytes (FLS); experiment: Inflammation level of FLS judged from secreted TNF-α and IL-8; conditions: FLS from patients with RA, treated 24 hours; TNF-α and IL-8 versus control group / HA only
# Method: as §1, §2, §3
Compound,"IL-8 concentration, Average concentration (IL-8)","TNF-α concentration, Average concentration (TNF-α)",inflammation level (effect of inhibiting the inflammation) [1]
"CC[C@H](C)C(=O)O[C@H]1C[C@@H](C)C=C2C=C[C@H](C)[C@H](CC[C@@H]3C[C@@H](O)CC(=O)O3)[C@H]21 [HMG-CoA reductase inhibitor, Lovastatin]",703.94 pg/mL,355.07 pg/mL,
hyaluronic acid [HA],353.40 pg/mL,296.46 pg/mL,the inflammation level was lowered
